Legend:
ATG5 gene = ATG5 gene expression promoting effect in human neuroblastoma SH-SY5Y in the presence of amyloid β; type: cell-based
Procedure: (§1) In the presence of an autophagy activator, the expression levels of the LC3 gene, ATG5 gene, and ATG7 gene in human neuroblastoma (SH-SY5Y; obtained from ATCC) were measured by the following test method, and the effect of promoting the expression of the LC3 gene, ATG5 gene, and ATG7 gene by an autophagy activator was evaluated.
(§2) In the following examples and comparative examples, tests were performed by adding amyloid β, which is known to cause a decrease in autophagy in nerve cells, to each medium.
(§3) SH-SY5Y cells were prepared at a seeding density of 10000 cells/cm^2 and cultured for 24 hours in D-MEM medium/Ham's F-12 medium (manufactured by Sigma-Aldrich) to which 10% fetal bovine serum (manufactured by MP Biomedicals) was added. Next, in Example 15, the methyl hesperidin DMSO solution was added to the medium such that the final concentration of methyl hesperidin was 10^−3% (V/V) and the final concentration of DMSO was 0.1% (V/V). […]
(§4) Then, using Nucleospin (registered trademark) RNA kit (manufactured by Takara Bio Inc.), RNA was extracted from SH-SY5Y cells in each example, and cDNA was synthesized from the obtained RNA. Next, using this cDNA as a template, by quantitative real-time PCR, the expression level of each gene was quantified using primers (manufactured by Takara Bio Inc.) specific to the LC3 gene, ATG5 gene, and ATG7 gene, respectively. […]

LC3 gene = LC3 gene expression promoting effect in human neuroblastoma SH-SY5Y in the presence of amyloid β; type: cell-based
Procedure: as §1, §2, §3, §4

[1] = SH-SY5Y cells with amyloid β, compared to DMSO and amyloid β of Comparative Example 5
[2] = SH-SY5Y cells, 20 μM amyloid β present, 10^−2% (V/V) methyl hesperidin or hesperidin, additional ingredient where in the example, 48 hours, Reference Example 3 = 1.00

Compound: COc1ccc([C@@H]2CC(=O)c3c(O)cc(O[C@@H]4O[C@H](CO[C@@H]5O[C@@H](C)[C@H](O)[C@@H](O)[C@H]5O)[C@@H](O)[C@H](O)[C@H]4O)cc3O2)cc1O [Comparative Example 2, hesperidin]
- expression level of the ATG5 gene (in words) (ATG5 gene; [1]): increased
- Relative gene expression level ATG5 (ATG5 gene; [2]): 3.29
- expression level of the LC3 gene (in words) (LC3 gene; [1]): increased
- Relative gene expression level LC3 (LC3 gene; [2]): 2.41

Reference: US20230355646A1, “AUTOPHAGY ACTIVATOR” (Resonac Corporation, priority 2020, published 2023)
